From the supplement of paper PMC10307832

Columns and labels:
Assay in all cases: relative viability (nuclei count vs DMSO), 5 days (fraction); higher = more cells survive
[1] = compound: O=S(=O)(c1ccccc1)N(CC(F)(F)F)c1ccc(C(O)(C(F)(F)F)C(F)(F)F)cc1 + COc1cc2c(Oc3ccc(NC(=O)C4(C(=O)Nc5ccc(F)cc5)CC4)cc3F)ccnc2cc1OCCCN1CCOCC1 [Foretinib] (partner 0.25 µM)
Method in brief: (§1)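 Lung cancer cell lines were seeded in 1536-well plates and dosed by pin tool the next day, with either a single drug or a fixed anchor-drug dose combined with five library-drug doses (not always all listed) spaced in √10 steps. Five days later, one step fixed the cells and stained their nuclei (final 0.05% Triton X-100, 1% formaldehyde, 1 ug/ml Hoechst), and nuclei were counted on 4× images. Relative viability is the nuclei count in treated wells divided by the count in vehicle wells, and each value is the median of duplicate plates.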

RO-3306 + OSI-027 = compound: C1=CC2=C(C=CC(=C2)C=C3C(=O)NC(=NCC4=CC=CS4)S3)N=C1 [RO-3306] + COc1cccc2cc(-c3nc([C@H]4CC[C@H](C(=O)O)CC4)n4ncnc(N)c34)[nH]c12 [OSI-027] (partner 0.5 µM)
Method in brief: as §1

RO-3306 + AZD7762 = compound: C1=CC2=C(C=CC(=C2)C=C3C(=O)NC(=NCC4=CC=CS4)S3)N=C1 [RO-3306] + NC(=O)Nc1cc(-c2cccc(F)c2)sc1C(=O)N[C@H]1CCCNC1 [AZD7762] (partner 0.2 µM)
Method in brief: as §1

[2] = compound: O=S(=O)(c1ccccc1)N(CC(F)(F)F)c1ccc(C(O)(C(F)(F)F)C(F)(F)F)cc1 + Cc1cc(Nc2cc(N3CCN(C)CC3)nc(Sc3ccc(NC(=O)C4CC4)cc3)n2)n[nH]1 [Tozasertib] (partner 0.1 µM)
Method in brief: as §1

Cell Line	relative viability ([1]; first compound 0.8 µM)	relative viability ([1]; first compound 2.53 µM)	relative viability ([1]; first compound 8 µM)	relative viability (RO-3306 + OSI-027; first compound 0.01 µM)	relative viability (RO-3306 + OSI-027; first compound 0.03162 µM)	relative viability (RO-3306 + OSI-027; first compound 0.1 µM)	relative viability (RO-3306 + OSI-027; first compound 0.3162 µM)	relative viability (RO-3306 + OSI-027; first compound 1 µM)	relative viability (RO-3306 + AZD7762; first compound 0.01 µM)	relative viability (RO-3306 + AZD7762; first compound 0.03162 µM)	relative viability (RO-3306 + AZD7762; first compound 0.1 µM)	relative viability (RO-3306 + AZD7762; first compound 0.3162 µM)	relative viability (RO-3306 + AZD7762; first compound 1 µM)	relative viability ([2]; first compound 0.8 µM)	relative viability ([2]; first compound 2.53 µM)	relative viability ([2]; first compound 8 µM)
NCI-H1915	1.1	1.03	1.1	0.698	0.594	0.613	0.637	0.396	0.749	0.679	0.727	0.698	0.685	0.458	0.454	0.468
NCI-H2405	1.14	1.05	0.979	0.609	0.591	0.629	0.614	0.626	0.828	0.608	0.717	0.718	0.578	0.889	0.749	0.711
EPLC-272H	0.544	0.599	0.702	0.259	0.252	0.29	0.223	0.283	0.152		0.138	0.188	0.199	0.366	0.379	0.312
NCI-H358	0.592	0.557	0.45	0.587	0.658	0.79	0.741	0.59	0.486	0.493	0.49	0.52	0.578	0.107	0.0905	0.0846
NCI-H1734	1.07	0.868	0.822	0.653	0.582	0.529	0.615	0.514	0.596	0.491	0.536	0.585	0.483	0.294	0.29	0.244
NCI-H596	0.876	0.711	0.887	0.788	0.72	0.7	0.729	0.579	1.17	1.01	1.03	1.1	0.917	0.907	0.761	0.75
BEN	0.568	0.527	0.578	0.333	0.3	0.256	0.297	0.283	0.558	0.676	0.649	0.742	0.768	0.615	0.549	0.508
SW 900	0.752	0.784	0.82	0.486	0.427	0.467	0.551	0.266	0.652	0.511	0.653	0.587	0.626	0.528	0.426	0.404
ABC-1	1.31	1.19	1.08	0.411	0.375	0.402	0.483	0.403	0.906	0.812	0.823	0.963	0.813	0.172	0.19	0.202
HCC-15	1.03	0.951	0.847	0.664	0.562	0.649	0.808	0.608	1.25	1.08	1.12	1.21	1.34	0.498	0.341	0.322
NCI-H460	1.14	0.889	0.778	0.613	0.492	0.654	0.835	0.605	0.797	0.675	0.682	0.737	0.785	0.392	0.417	0.243
EMC-BAC-2	1.22	1.04	0.954	0.306	0.36	0.358	0.352	0.315	1.1	1.04	1.14	1.14	1	0.293	0.284	0.28
NCI-H1993	0.681	0.726	0.679	0.6	0.581	0.507	0.614	0.543	0.697	0.756	0.772	0.77	0.684	0.596	0.535	0.528
NCI-H2126	1.35	1.19	1.1	0.627	0.597	0.707	0.708	0.727	1.01	0.976	1.02	0.993	1.13	0.934	0.887	0.769
LK-2	1.21	1.16	0.835	0.209		0.157	0.17	0.202	0.459	0.354	0.425	0.448	0.472	0.174	0.188	0.189
NCI-H441	0.916	0.927	0.952	0.555	0.506	0.541	0.617	0.534	1.02	0.782	1.21	0.948	1.03	0.58	0.588	0.697
NCI-H322M	1.08	0.915	0.953	0.535	0.527	0.532	0.571	0.503	0.538	0.697	0.625	0.597	0.582	0.562	0.575	0.467

Cell Line	relative viability ([1]; first compound 0.8 µM)	relative viability ([1]; first compound 2.53 µM)	relative viability ([1]; first compound 8 µM)	relative viability (RO-3306 + OSI-027; first compound 0.01 µM)	relative viability (RO-3306 + OSI-027; first compound 0.03162 µM)	relative viability (RO-3306 + OSI-027; first compound 0.1 µM)	relative viability (RO-3306 + OSI-027; first compound 0.3162 µM)	relative viability (RO-3306 + OSI-027; first compound 1 µM)	relative viability (RO-3306 + AZD7762; first compound 0.01 µM)	relative viability (RO-3306 + AZD7762; first compound 0.03162 µM)	relative viability (RO-3306 + AZD7762; first compound 0.1 µM)	relative viability (RO-3306 + AZD7762; first compound 0.3162 µM)	relative viability (RO-3306 + AZD7762; first compound 1 µM)	relative viability ([2]; first compound 0.8 µM)	relative viability ([2]; first compound 2.53 µM)	relative viability ([2]; first compound 8 µM)
ChaGo-K-1	1.04	0.84	0.818	0.59	0.365	0.455	0.474	0.341	1.08	0.694	0.84	0.945	0.769	0.225	0.209	0.235
NCI-H1793	0.484	0.321	0.566	0.266	0.277	0.291	0.251	0.262	0.643		0.484	0.277	0.532	0.31	0.249	0.269
EKVX	0.751	0.479	0.82	0.757	0.646	0.661	0.955	0.684	0.727	0.538	0.677	0.692	0.603	0.405	0.344	0.325
NCI-H1355	1.06	0.978	1.01	0.379		0.378	0.375	0.337	0.792	0.762	0.677	0.694	0.863	0.555	0.5	0.518
CAL-12T	1.06	0.962	0.936	0.378	0.615	0.585	0.616	0.597	0.718	0.565	0.575	0.658	0.747	0.299	0.331	0.242
NCI-H2085	0.886	0.725	0.885	0.598	0.728	0.642	0.664	0.635	1.04	0.95	0.93	0.921	1.07	0.809	0.727	0.688
LOU-NH91	0.999	0.884	0.937	0.686	0.712	0.711	0.719	0.686	0.76	0.721	0.746	0.721	0.667	0.735	0.701	0.678
NCI-H1975	1.11	1.01	1.13	0.959	0.614	0.655	0.788	0.613	0.762	0.671	0.712	0.641	0.653	0.781	0.622	0.659
NCI-H23	1.02	1.16	1	0.531	0.462	0.575	0.519	0.403	0.249		0.21	0.303	0.227	0.315	0.307	0.331
HCC-366	0.96	0.937	1.04	1.13	1.06	0.847	0.955	0.654	0.242	0.215	0.254	0.347	0.417	0.133	0.0684	0.0773
LCLC-103H	0.973	0.758	0.81	0.479	0.392	0.45	0.418	0.508	0.732	0.695	0.795	0.819	0.725	0.541	0.447	0.349
HCC-827	1.04	1.02	0.922	0.855	0.59	0.808	0.8	0.8	0.234	0.18	0.216	0.197	0.196	0.419	0.414	0.406
NCI-H2347	1.2	0.996	0.683	0.449	0.404	0.421	0.249	0.356	1.13	0.663	0.796	0.766	0.724	0.628	0.523	0.646
PC-3 [JPC-3]	1.1	0.983	0.951	0.851	0.718	0.787	0.681	0.741	0.688	0.673	0.769	0.687	0.681	0.819	0.838	0.767
NCI-H1651	0.974	0.795	0.68	0.796	0.564	0.633	0.794	0.609	0.437	0.406	0.454	0.424	0.469	0.734	0.687	0.564
NCI-H3122	0.891	0.792	1.05	1.11	0.849	1.03	1.03	1.01	1.16	1.06	0.973	1.06	1.1	0.419	0.424	0.489
